Where two headings read alike, the source gives them in different places.
Legend:
[1] = test system: A. baumannii 14B0097 (Acinetobacter sp., BCRC number 14B0097)
In short: (§1)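 Broth microdilution per CLSI in Müller-Hinton broth and modified LYM broth (pH 7.4; variants with 50–300 mM NaCl, 0.5–2.5 mM MgCl2, or pH 6.5–4.5). Inoculum 5 × 10^5 CFU/mL; peptides tested at 0.78–50 µg/mL final. MIC read; three independent repeats.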

S. aureus ATCC 33593 = test system: S. aureus ATCC 33593
In short: as §1

[2] = test system: A. baumannii 14B0091 (Acinetobacter sp., BCRC number 14B0091)
In short: as §1

S. aureus ATCC 33591 = test system: S. aureus ATCC 33591
In short: as §1

[3] = test system: Escherichia coli (ATCC 25922)
In short: as §1

[4] = test system: A. baumannii 14B00100 (Acinetobacter sp., BCRC number 14B0100)
In short: as §1

S. aureus ATCC 6538 = test system: S. aureus ATCC 6538
In short: as §1

S. aureus ATCC 25923 = test system: S. aureus ATCC 25923
In short: as §1

[5] = LYM broth, 0 mM NaCl, 16 h, 37 °C
[6] = LYM broth, 50 mM NaCl, 16 h, 37 °C
[7] = LYM broth, 100 mM NaCl, 16 h, 37 °C
[8] = LYM broth, 200 mM (NaCl), 16 h, 37 °C
[9] = LYM broth, 300 mM (NaCl), 16 h, 37 °C
[10] = MH broth, 5 × 10^5 CFU/mL, 16 h, 37 °C, repeated three times

In the case of Ac-KKWRKWLKWLAKK-NH2 [W5K/A9W], the MIC [1, 5] is reported as 1.56 µg/mL, the MIC ([1]; LYM broth, 0.5 mM MgCl2) is reported as 1.56 µg/mL and the MIC ([1]; LYM broth, 1.5 mM MgCl2) is reported as 1.56 µg/mL. The MIC ([1]; LYM broth, 2.5 mM MgCl2) was 1.56 µg/mL, the MIC [1, 6] was 1.56 µg/mL and the MIC [1, 7] was 1.56 µg/mL. For the same substance, the MIC [1, 8] was 1.56 µg/mL, the MIC [1, 9] was 1.56 µg/mL and the MIC ([1]; LYM broth, pH 4.5) was 1.56 µg/mL. The MIC ([1]; LYM broth, pH 5.5) was 1.56 µg/mL, the MIC ([1]; LYM broth, pH 6.5) was 1.56 µg/mL and the MIC [1, 10] was 1.56 µg/mL. For the same substance, the MIC (S. aureus ATCC 33593; [5]) was 3.13 µg/mL, the MIC (S. aureus ATCC 33593; LYM broth, 0.5 mM MgCl2) was 3.13 µg/mL and the MIC (S. aureus ATCC 33593; LYM broth, 1.5 mM MgCl2) was 3.13 µg/mL. It also gave an MIC (S. aureus ATCC 33593; LYM broth, 2.5 mM MgCl2) of 3.13 µg/mL, an MIC (S. aureus ATCC 33593; [6]) of 3.13 µg/mL and an MIC (S. aureus ATCC 33593; [7]) of 3.13 µg/mL. For the same substance, the MIC (S. aureus ATCC 33593; [8]) was 6.25 µg/mL, the MIC (S. aureus ATCC 33593; [9]) was 12.5 µg/mL and the MIC (S. aureus ATCC 33593; LYM broth, pH 4.5) was 3.13 µg/mL. The MIC (S. aureus ATCC 33593; LYM broth, pH 5.5) was 3.13 µg/mL, the MIC (S. aureus ATCC 33593; LYM broth, pH 6.5) was 3.13 µg/mL and the MIC (S. aureus ATCC 33593; [10]) was 12.5 µg/mL. For the same substance, the MIC [2, 5] was 1.56 µg/mL, the MIC ([2]; LYM broth, 0.5 mM MgCl2) was 1.56 µg/mL and the MIC ([2]; LYM broth, 1.5 mM MgCl2) was 1.56 µg/mL. For the same substance, the MIC ([2]; LYM broth, 2.5 mM MgCl2) was 1.56 µg/mL, the MIC [2, 6] was 1.56 µg/mL and the MIC [2, 7] was 1.56 µg/mL. For the same substance, the MIC [2, 8] was 1.56 µg/mL, the MIC [2, 9] was 1.56 µg/mL and the MIC ([2]; LYM broth, pH 4.5) was 1.56 µg/mL. For the same substance, the MIC ([2]; LYM broth, pH 5.5) was 1.56 µg/mL, the MIC ([2]; LYM broth, pH 6.5) was 1.56 µg/mL and the MIC [2, 10] was 1.56 µg/mL. For the same substance, the MIC (S. aureus ATCC 33591; [5]) was 3.13 µg/mL, the MIC (S. aureus ATCC 33591; LYM broth, 0.5 mM MgCl2) was 3.13 µg/mL and the MIC (S. aureus ATCC 33591; LYM broth, 1.5 mM MgCl2) was 3.13 µg/mL. It also gave an MIC (S. aureus ATCC 33591; LYM broth, 2.5 mM MgCl2) of 3.13 µg/mL, an MIC (S. aureus ATCC 33591; [6]) of 3.13 µg/mL and an MIC (S. aureus ATCC 33591; [7]) of 6.25 µg/mL. For the same substance, the MIC (S. aureus ATCC 33591; [8]) was 6.25 µg/mL, the MIC (S. aureus ATCC 33591; [9]) was 12.5 µg/mL and the MIC (S. aureus ATCC 33591; LYM broth, pH 4.5) was 3.13 µg/mL. It also gave an MIC (S. aureus ATCC 33591; LYM broth, pH 5.5) of 3.13 µg/mL, an MIC (S. aureus ATCC 33591; LYM broth, pH 6.5) of 3.13 µg/mL and an MIC (S. aureus ATCC 33591; [10]) of 12.5 µg/mL. For the same substance, the MIC [3, 5] was 1.56 µg/mL, the MIC ([3]; LYM broth, 0.5 mM MgCl2) was 3.13 µg/mL and the MIC ([3]; LYM broth, 1.5 mM MgCl2) was 3.13 µg/mL. The MIC ([3]; LYM broth, 2.5 mM MgCl2) was 6.25 µg/mL, the MIC [3, 6] was 1.56 µg/mL and the MIC [3, 7] was 3.13 µg/mL. The MIC [3, 8] was 3.13 µg/mL, the MIC [3, 9] was 12.5 µg/mL and the MIC ([3]; LYM broth, pH 4.5) was 1.56 µg/mL. It also gave an MIC ([3]; LYM broth, pH 5.5) of 1.56 µg/mL, an MIC ([3]; LYM broth, pH 6.5) of 1.56 µg/mL and an MIC [3, 10] of 3.13 µg/mL. It also gave an MIC [4, 5] of 1.56 µg/mL, an MIC ([4]; LYM broth, 0.5 mM MgCl2) of 1.56 µg/mL and an MIC ([4]; LYM broth, 1.5 mM MgCl2) of 1.56 µg/mL. For the same substance, the MIC ([4]; LYM broth, 2.5 mM MgCl2) was 1.56 µg/mL, the MIC [4, 6] was 1.56 µg/mL and the MIC [4, 7] was 1.56 µg/mL. It also gave an MIC [4, 8] of 1.56 µg/mL, an MIC [4, 9] of 1.56 µg/mL and an MIC ([4]; LYM broth, pH 4.5) of 1.56 µg/mL. For the same substance, the MIC ([4]; LYM broth, pH 5.5) was 1.56 µg/mL, the MIC ([4]; LYM broth, pH 6.5) was 1.56 µg/mL and the MIC [4, 10] was 1.56 µg/mL. It also gave an MIC (S. aureus ATCC 6538; [5]) of 1.56 µg/mL, an MIC (S. aureus ATCC 6538; LYM broth, 0.5 mM MgCl2) of 1.56 µg/mL and an MIC (S. aureus ATCC 6538; LYM broth, 1.5 mM MgCl2) of 1.56 µg/mL. It also gave an MIC (S. aureus ATCC 6538; LYM broth, 2.5 mM MgCl2) of 1.56 µg/mL, an MIC (S. aureus ATCC 6538; [6]) of 1.56 µg/mL and an MIC (S. aureus ATCC 6538; [7]) of 1.56 µg/mL. For the same substance, the MIC (S. aureus ATCC 6538; [8]) was 3.13 µg/mL, the MIC (S. aureus ATCC 6538; [9]) was 6.25 µg/mL and the MIC (S. aureus ATCC 6538; LYM broth, pH 4.5) was 3.13 µg/mL. The MIC (S. aureus ATCC 6538; LYM broth, pH 5.5) was 1.56 µg/mL, the MIC (S. aureus ATCC 6538; LYM broth, pH 6.5) was 1.56 µg/mL and the MIC (S. aureus ATCC 6538; [10]) was 6.25 µg/mL. It also gave an MIC (S. aureus ATCC 25923; [5]) of 1.56 µg/mL, an MIC (S. aureus ATCC 25923; LYM broth, 0.5 mM MgCl2) of 1.56 µg/mL and an MIC (S. aureus ATCC 25923; LYM broth, 1.5 mM MgCl2) of 3.13 µg/mL. The MIC (S. aureus ATCC 25923; LYM broth, 2.5 mM MgCl2) was 3.13 µg/mL, the MIC (S. aureus ATCC 25923; [6]) was 1.56 µg/mL and the MIC (S. aureus ATCC 25923; [7]) was 3.13 µg/mL. The MIC (S. aureus ATCC 25923; [8]) was 3.13 µg/mL, the MIC (S. aureus ATCC 25923; [9]) was 6.25 µg/mL and the MIC (S. aureus ATCC 25923; LYM broth, pH 4.5) was 3.13 µg/mL. The MIC (S. aureus ATCC 25923; LYM broth, pH 5.5) was 1.56 µg/mL, the MIC (S. aureus ATCC 25923; LYM broth, pH 6.5) was 1.56 µg/mL and the MIC (S. aureus ATCC 25923; [10]) was 3.13 µg/mL.
